In paper PMC4639722, “Dihydrotanshinone-I interferes with the RNA-binding activity of HuR affecting its post-transcriptional function” (Scientific Reports, 2015):

How the values were obtained:
HuD = biological target: T1, HuD (Homo sapiens, UniProt P26378); experiment: REMSA of purified HuD with Cy3 AU-rich RNA probe; assay type: biochemical
T1 construct: gene ELAVL4; HuD-His, expressed in HEK293T cells and purified

HuR = biological target: T2, HuR (Homo sapiens, UniProt Q15717); experiment: REMSA of recombinant HuR with Cy3 AU-rich RNA probe at equilibrium; assay type: biochemical
T2 construct: gene ELAVL1; recombinant HuR (HuR-cMyc-His)

HuR M1_M2 = HuR M1_M2 (human, UniProt Q15717 1-197); experiment: equilibrium binding, assay not stated (REMSA or AlphaScreen); no DHTS; DHTS inhibits, Ki 4.12 nM; REMSA/AlphaScreen buffers as in ref 23 (not given); pull-down lysates: 20 mM HEPES pH 7.5, 50 mM KCl, 0.5 ug BSA, 0.25% glycerol, 4 C; details: protein: recombinant; tags: His; label: 5'-Cy3; single strand
HuR M2_M3 = HuR M2_M3 (human, UniProt Q15717 117-326); experiment: equilibrium binding, assay not stated (REMSA or AlphaScreen); no DHTS; limited effect of DHTS; REMSA/AlphaScreen buffers as in ref 23 (not given); pull-down lysates: 20 mM HEPES pH 7.5, 50 mM KCl, 0.5 ug BSA, 0.25% glycerol, 4 C; details: protein: recombinant; tags: His; label: 5'-Cy3; single strand
HuR M2_M3, sequence (Q15717 117-326): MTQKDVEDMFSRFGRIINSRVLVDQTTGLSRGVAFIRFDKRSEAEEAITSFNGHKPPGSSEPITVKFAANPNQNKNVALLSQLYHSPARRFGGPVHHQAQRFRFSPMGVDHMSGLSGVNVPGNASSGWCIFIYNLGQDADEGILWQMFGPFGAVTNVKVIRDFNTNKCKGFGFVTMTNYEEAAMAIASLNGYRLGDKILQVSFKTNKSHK

T2 sequence (Q15717 2-326): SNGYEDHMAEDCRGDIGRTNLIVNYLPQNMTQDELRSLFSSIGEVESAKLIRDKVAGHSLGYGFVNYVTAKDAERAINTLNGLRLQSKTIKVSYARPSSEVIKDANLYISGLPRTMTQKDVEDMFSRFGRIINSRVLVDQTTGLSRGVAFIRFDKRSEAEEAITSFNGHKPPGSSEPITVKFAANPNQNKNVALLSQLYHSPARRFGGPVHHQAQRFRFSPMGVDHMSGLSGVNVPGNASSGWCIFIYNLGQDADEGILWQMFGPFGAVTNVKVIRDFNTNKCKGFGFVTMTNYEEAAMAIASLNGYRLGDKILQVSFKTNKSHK
HuR M1_M2, sequence (Q15717 1-197): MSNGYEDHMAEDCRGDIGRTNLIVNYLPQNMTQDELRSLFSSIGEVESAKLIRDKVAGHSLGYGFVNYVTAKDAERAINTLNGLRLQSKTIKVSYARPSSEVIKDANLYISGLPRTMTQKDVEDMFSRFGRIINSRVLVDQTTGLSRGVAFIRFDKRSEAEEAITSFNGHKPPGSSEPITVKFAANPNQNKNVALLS
T1 sequence (P26378 whole entry): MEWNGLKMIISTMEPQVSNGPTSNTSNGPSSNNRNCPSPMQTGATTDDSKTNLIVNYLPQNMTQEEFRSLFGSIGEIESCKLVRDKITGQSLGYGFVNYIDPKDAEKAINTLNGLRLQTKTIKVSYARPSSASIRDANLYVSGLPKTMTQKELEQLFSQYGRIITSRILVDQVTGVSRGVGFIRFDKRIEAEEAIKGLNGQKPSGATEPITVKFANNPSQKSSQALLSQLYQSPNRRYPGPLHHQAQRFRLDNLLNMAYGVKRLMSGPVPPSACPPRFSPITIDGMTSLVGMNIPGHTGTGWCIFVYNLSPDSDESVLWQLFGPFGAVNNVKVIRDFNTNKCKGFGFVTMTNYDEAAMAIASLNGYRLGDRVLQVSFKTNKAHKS

## Cc1cccc2c3c(ccc12)C1=C(C(=O)C3=O)[C@@H](C)CO1 [15,16-dihydrotanshinone-I]
HuD
  REMSA of purified HuD with Cy3 AU-rich RNA probe: only HuD-RNA complex formation was affected by DHTS at the reference doses

## C[C@H]1COC2=C1C(=O)C(=O)c1c2ccc2c1CCCC2(C)C [Cryptotanshinone]
HuR
  REMSA of recombinant HuR with Cy3 AU-rich RNA probe at equilibrium: while cryptotanshinone and tanshinone IIA were less potent (micromolar range)

## Cc1coc2c1C(=O)C(=O)c1c-2ccc2c(C)cccc12 [TanI, Tanshinone I]
HuR
  REMSA of recombinant HuR with Cy3 AU-rich RNA probe at equilibrium: the potency of tanshinone I was comparable to DHTS at equilibrium (Fig. 2B)

## Cc1coc2c1C(=O)C(=O)c1c-2ccc2c1CCCC2(C)C [TanII, Tanshinone IIA]
HuR
  REMSA of recombinant HuR with Cy3 AU-rich RNA probe at equilibrium: while cryptotanshinone and tanshinone IIA were less potent (micromolar range)

## AUUAUUUAUUAUUUAUUUAUUAUUUA (ssRNA) [Cy3 TNF ARE RNA probe]
HuR M1_M2
  Kd: 2.66 nM
HuR M2_M3
  Kd: ~24 nM
